Results published in PubChem BioAssay (NCI).
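Growth conditions: 96-well plates. Treatment: test compound, 48 hours, 5 concentrations. Analysis: linear interpolation between bracketing concentrations; unreached endpoints set to highest concentration. Abbreviation: GI50, concentration required for 50% inhibition of growth. At the TGI there is no net growth.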

Tests used:
Assay in all cases: NCI tumour cell line growth inhibition, 48 h
SN12C renal = test system: SN12C renal
NCI-H460 lung = test system: NCI-H460 lung
SK-MEL-2 melanoma = test system: SK-MEL-2 melanoma
HOP-92 NSCLC = test system: HOP-92 NSCLC
SNB-75 CNS = test system: SNB-75 CNS
OVCAR-4 ovarian = test system: OVCAR-4 ovarian
HL-60(TB) leukemia = test system: HL-60(TB) leukemia
UACC-62 melanoma = test system: UACC-62 melanoma
HS 578T breast = test system: HS 578T breast
NCI/ADR-RES ovarian = test system: NCI/ADR-RES ovarian

| SMILES | TGI (SN12C renal) [µM] | TGI (NCI-H460 lung) [µM] | TGI (SK-MEL-2 melanoma) [µM] | TGI (HOP-92 NSCLC) [µM] | TGI (SNB-75 CNS) [µM] | TGI (OVCAR-4 ovarian) [µM] | TGI (HL-60(TB) leukemia) [µM] | TGI (UACC-62 melanoma) [µM] | TGI (HS 578T breast) [µM] | TGI (NCI/ADR-RES ovarian) [µM] | GI50 (SN12C renal) [µM] | GI50 (NCI-H460 lung) [µM] | GI50 (SK-MEL-2 melanoma) [µM] | GI50 (HOP-92 NSCLC) [µM] | GI50 (SNB-75 CNS) [µM] | GI50 (HS 578T breast) [µM] | GI50 (NCI/ADR-RES ovarian) [µM] | GI50 (UACC-62 melanoma) [µM] |
| --- | --- | --- | --- | --- | --- | --- | --- | --- | --- | --- | --- | --- | --- | --- | --- | --- | --- | --- |
| CCOc1ccccc1NC(=O)C1=C(C)NC(C)=C(C(=O)Nc2ccccc2OCC)C1c1ccc2c(c1)OCO2 | > 100 | > 100 | 55.3 | 56 | 35.3 | 76.2 | 45.3 |  |  |  |  |  |  |  |  |  |  |  |
| CC1(C)O[C@@H](CCl)C[C@@H](C#N)O1 |  | > 100 | > 100 | > 100 | > 100 | > 100 | > 100 | > 100 |  |  |  |  |  |  |  |  |  |  |
| CC(=O)Nc1ccc2c(c1)[nH]c(=O)c1cc(Cl)ccc12 | > 100 | 52.9 | > 100 |  | > 100 | > 100 | > 100 | > 100 | > 100 | > 100 |  |  |  |  |  |  |  |  |
| Cc1cc2nc3c(C(OC4OC(CO)C(O)C(O)C4O)C(O)CO)nn(-c4ccc(F)cc4)c3nc2cc1C (stereo unspecified) | > 100 | > 100 |  |  | > 100 | > 100 |  | > 100 |  |  |  |  |  |  |  |  |  |  |
| COC(=O)C1C(=O)NC2(C)CC1c1ccccc1O2 (stereo unspecified) | > 100 | > 100 | > 100 | > 100 | > 100 | > 100 | > 100 | > 100 |  |  |  |  |  |  |  |  |  |  |
| O=C(Cn1ccnc1[N+](=O)[O-])NCc1ccc(F)cc1 | > 100 | > 100 | > 100 | > 100 | > 100 | > 100 | > 100 | > 100 |  |  |  |  |  |  |  |  |  |  |
| O=C1Cc2c([nH]c3ccccc23)-c2cc(Br)ccc2N1 | > 100 | > 100 | > 100 | > 100 | > 100 | > 100 | > 100 |  |  |  |  |  |  |  |  |  |  |  |
| CCOc1ccc(N=Nc2c(-c3ccccc3)nn(C(=O)CC(=O)Nc3ccccc3Cl)c2-c2ccccc2)cc1 | > 100 | > 100 | > 100 | > 100 | 90.6 | > 100 | > 100 | > 100 |  |  |  |  |  |  |  |  |  |  |
| COc1cc2ccc(CC(=O)O)cc2cc1OC | > 100 |  | > 100 |  | > 100 | > 100 | > 100 | > 100 |  |  |  |  |  |  |  |  |  |  |
| COc1cc([C@H]2c3cc4c(cc3[C@H](NCc3ccc(F)cc3)C3COC(=O)[C@H]32)OCO4)cc(OC)c1O (stereo partly specified) | 6.67 | 12.3 | 33.1 | 49.5 | 9.16 | > 100 | 4.7 | 6.68 |  |  |  |  |  |  |  |  |  |  |
| CC[C@]1(O)C[C@@H]2CN(CCc3c([nH]c4ccccc34)[C@@](C(=O)OC)(c3cc4c(cc3OC)N(C)[C@H]3[C@@](O)(C(=O)OC)[C@H](OC(=O)CCCBr)[C@]5(CC)C=CCN6CC[C@]43[C@@H]65)C2)C1 | > 100 | > 100 | > 100 | 3.53 | < 0.01 | 33.5 |  | > 100 |  | > 100 | 0.046 | 0.0245 | 0.0331 | 0.0877 | < 0.01 | < 0.0185 | 0.986 | < 0.01 |
| CCOC(=O)c1cnc2c(ccc3ncccc32)c1OCC | > 100 | > 100 | > 100 |  | > 100 | > 100 | > 100 | > 100 |  |  |  |  |  |  |  |  |  |  |
